≈ marks a conversion by molar mass, not a printed value. Square brackets hold non-standard residues; d marks the D form. Peptide text beside a SMILES is read from it. ξ: configuration not given here. Oic(3aξ,7aξ) = O=C(O)[C@@H]1CC2CCCCC2N1; Tiq1c(1S) = O=C(O)[C@H]1NCCc2ccccc21
Experiments:
Staphylococcus aureus [1] = experiment: Antimicrobial activity against ME/GM/TC-resistant Staphylococcus aureus; format: functional
[2] = Induction of calcein leakage in 1-palmitoyl-2-oleoyl-sn-glycero-3-phosphocholine/1-palmitoyl- 2-oleoyl-sn-glycero-3-[phospho-rac-(1-glycerol)] (sodium salt) large unilamellar vesicle at 4 to 20 uM after 90 mins by fluorescence assay; format: physicochemical; conditions: 1.5 h
[3] = Binding affinity to 1-palmitoyl-2-oleoyl-sn-glycero-3-phosphocholine large unilamellar vesicle at 100 uM by isothermal titration calorimetry analysis; format: physicochemical
[4] = Induction of calcein leakage in 1-palmitoyl-2-oleoyl-sn-glycero-3-phosphocholine large unilamellar vesicle assessed as leakage constant after 90 mins by fluorescence assay; format: physicochemical; conditions: 1.5 h
[5] = Binding affinity to 1-palmitoyl-2-oleoyl-sn-glycero-3-phosphocholine/1-palmitoyl- 2-oleoyl-sn-glycero-3-[phospho-rac-(1-glycerol)] (sodium salt) small unilamellar vesicle in 40 mM phosphate buffer at pH 6.8 at 100 uM by Far-UV CD spectra analysis; format: physicochemical; conditions: pH 6.8, 100 µM
Salmonella typhimurium = experiment: Antimicrobial activity against Salmonella typhimurium; format: functional, Salmonella enterica subsp. enterica serovar Typhimurium; conditions: Salmonella enterica
Mycobacterium = experiment: Antimicrobial activity against Mycobacterium ranae; format: functional
[6] = Binding affinity to 1-palmitoyl-2-oleoyl-sn-glycero-3-phosphocholine/1-palmitoyl- 2-oleoyl-sn-glycero-3-[phospho-rac-(1-glycerol)] (sodium salt) large unilamellar vesicle at 200 uM by isothermal titration calorimetry analysis; format: physicochemical
[7] = Induction of calcein leakage in 1-palmitoyl-2-oleoyl-sn-glycero-3-phosphocholine/1-palmitoyl- 2-oleoyl-sn-glycero-3-[phospho-rac-(1-glycerol)] (sodium salt) large unilamellar vesicle assessed as leakage constant after 90 mins by fluorescence assay; format: physicochemical; conditions: 1.5 h
[8] = Binding affinity to 1-palmitoyl-2-oleoyl-sn-glycero-3-phosphocholine small unilamellar vesicle in 40 mM phosphate buffer at pH 6.8 at 100 uM by Far-UV CD spectra analysis; format: physicochemical; conditions: pH 6.8, 100 µM
[9] = Binding affinity to 1-palmitoyl-2-oleoyl-sn-glycero-3-phosphocholine/1-palmitoyl- 2-oleoyl-sn-glycero-3-[phospho-rac-(1-glycerol)] (sodium salt) large unilamellar vesicle in 40 mM phosphate buffer at pH 6.8 at 100 uM by Far-UV CD spectra analysis; format: physicochemical; conditions: pH 6.8, 100 µM
Bacillus subtilis = experiment: Antimicrobial activity against Bacillus subtilis; format: functional
[10] = Binding affinity to 1-palmitoyl-2-oleoyl-sn-glycero-3-phosphocholine large unilamellar vesicle in 40 mM phosphate buffer at pH 6.8 at 100 uM by Far-UV CD spectra analysis; format: physicochemical; conditions: pH 6.8, 100 µM
Yersinia pestis = experiment: Antimicrobial activity against Yersinia pestis CO92; format: functional
Acinetobacter baumannii [11] = experiment: Antimicrobial activity against Acinetobacter baumannii ATCC 19606; format: functional
Brucella melitensis = experiment: Antimicrobial activity against Brucella melitensis 16M; format: functional
[12] = tested on: Burkholderia pseudomallei; experiment: Antimicrobial activity against Burkholderia pseudomallei; format: functional
Brucella abortus = experiment: Antimicrobial activity against Brucella abortus 2308; format: functional
[13] = Binding affinity to DPC micelles by CD spectra analysis; format: physicochemical
Burkholderia mallei = experiment: Antimicrobial activity against Burkholderia mallei; format: functional
[14] = Binding affinity to SDS micelles by CD spectra analysis; format: physicochemical
Bacillus anthracis = experiment: Antimicrobial activity against Bacillus anthracis AMES; format: functional
[15] = tested on: Francisella tularensis subsp. tularensis SCHU S4; experiment: Antimicrobial activity against Francisella tularensis SCHUS4; format: functional
Acinetobacter baumannii [16] = experiment: Antimicrobial activity against Acinetobacter baumannii WRAIR; format: functional
Staphylococcus aureus [17] = experiment: Antimicrobial activity against Staphylococcus aureus ATCC 33591; format: functional
Brucella suis = experiment: Antimicrobial activity against Brucella suis 23444; format: functional
[18] = Induction of calcein leakage in 1-palmitoyl-2-oleoyl-sn-glycero-3-phosphocholine large unilamellar vesicle at 4 to 20 uM after 90 mins by fluorescence assay; format: physicochemical; conditions: 1.5 h
[19] = Binding affinity to 1-palmitoyl-2-oleoyl-sn-glycero-3-phosphocholine/1-palmitoyl- 2-oleoyl-sn-glycero-3-[phospho-rac-(1-glycerol)] (sodium salt) large unilamellar vesicle in 40 mM phosphate buffer at pH 6.8 at 75 uM by Far-UV CD spectra analysis; format: physicochemical; conditions: pH 6.8, 75 µM
[20] = Binding affinity to 1-palmitoyl-2-oleoyl-sn-glycero-3-phosphocholine small unilamellar vesicle in 40 mM phosphate buffer at pH 6.8 at 75 uM by Far-UV CD spectra analysis; format: physicochemical; conditions: pH 6.8, 75 µM
[21] = Binding affinity to 1-palmitoyl-2-oleoyl-sn-glycero-3-phosphocholine/1-palmitoyl- 2-oleoyl-sn-glycero-3-[phospho-rac-(1-glycerol)] (sodium salt) small unilamellar vesicle in 40 mM phosphate buffer at pH 6.8 at 75 uM by Far-UV CD spectra analysis; format: physicochemical; conditions: pH 6.8, 75 µM
[22] = Binding affinity to 1-palmitoyl-2-oleoyl-sn-glycero-3-phosphocholine large unilamellar vesicle at 200 uM by isothermal titration calorimetry analysis; format: physicochemical
[23] = Binding affinity to 1-palmitoyl-2-oleoyl-sn-glycero-3-phosphocholine large unilamellar vesicle in 40 mM phosphate buffer at pH 6.8 at 75 uM by Far-UV CD spectra analysis; format: physicochemical; conditions: pH 6.8, 75 µM

| SMILES | MIC (Staphylococcus aureus [1]) [µM] | Activity [2] | Activity [3] | K [4] | Activity [5] | MIC (Salmonella typhimurium) [µM] | MIC (Mycobacterium) [µM] | Activity [6] | K [7] | Activity [8] | Activity [9] | Activity [10] | MIC (Yersinia pestis) [µM] | MIC (Acinetobacter baumannii [11]) [µM] | MIC (Brucella melitensis) [µM] | MIC [12] [µM] | MIC (Brucella abortus) [µM] | Activity [13] | MIC (Burkholderia mallei) [µM] | Activity [14] | other results |
| --- | --- | --- | --- | --- | --- | --- | --- | --- | --- | --- | --- | --- | --- | --- | --- | --- | --- | --- | --- | --- | --- |
| CC(=O)NCC(=O)N[C@@H](Cc1ccccc1)C(=O)N1CCc2ccccc2[C@H]1C(=O)N1C2CCCCC2C[C@H]1C(=O)NCC(=O)N[C@@H](CCCCN)C(=O)N1CCc2ccccc2[C@H]1C(=O)N1C2CCCCC2C[C@H]1C(=O)NCC(=O)N[C@@H](Cc1ccccc1)C(=O)N1CCc2ccccc2[C@H]1C(=O)N1C2CCCCC2C[C@H]1C(=O)NCC(=O)N[C@@H](CCCCN)C(=O)N1CCc2ccccc2[C@H]1C(=O)N[C@@H](CCCCN)C(=O)N[C@@H](CCCCN)C(=O)N[C@@H](CCCCN)C(=O)N[C@@H](CCCCN)C(=O)N[C@@H](CCCCN)C(N)=O (stereo partly drawn) (Ac-GF[Tiq1c(1S)][Oic(3aξ,7aξ)]GK[Tiq1c(1S)][Oic(3aξ,7aξ)]GF[Tiq1c(1S)][Oic(3aξ,7aξ)]GK[Tiq1c(1S)]KKKKK-NH2) | 3 (≈ 7.71 µg/mL) | Not Active | Active | 0.0011 | Active | 10 (≈ 25.7 µg/mL) | 3 (≈ 7.71 µg/mL) | Active | 0.073 | Active | Active | Active | – | – | – | – | – | – | – | – | MIC (Bacillus subtilis): 1 µM (≈ 2.57 µg/mL) |
| CC(=O)NCC(=O)N[C@@H](Cc1ccccc1)C(=O)N1CCc2ccccc2[C@H]1C(=O)N1C2CCCCC2C[C@H]1C(=O)NCC(=O)N[C@@H](CCCCN)C(=O)N1CCc2ccccc2[C@H]1C(=O)N1C2CCCCC2C[C@H]1C(=O)NCC(=O)N[C@@H](Cc1ccccc1)C(=O)N1CCc2ccccc2[C@H]1C(=O)N1C2CCCCC2C[C@H]1C(=O)NCC(=O)N[C@@H](CCCCN)C(=O)N1CCc2ccccc2[C@H]1C(=O)N[C@@H](CCCCN)C(=O)N[C@@H](CCCCN)C(=O)N[C@@H](CCCCN)C(N)=O (stereo partly drawn) (Ac-GF[Tiq1c(1S)][Oic(3aξ,7aξ)]GK[Tiq1c(1S)][Oic(3aξ,7aξ)]GF[Tiq1c(1S)][Oic(3aξ,7aξ)]GK[Tiq1c(1S)]KKK-NH2) | – | Active | Active | 0.014 | Active | – | – | Active | 0.075 | Active | Active | Active | 27 (≈ 62.4 µg/mL) | 6.7 (≈ 15.5 µg/mL) | 54 (≈ 125 µg/mL) | 0.02 (≈ 0.0463 µg/mL) | 27 (≈ 62.4 µg/mL) | Active | 0.02 (≈ 0.0463 µg/mL) | Active | MIC (Bacillus anthracis): 27 µM (≈ 62.4 µg/mL); MIC [15]: 0.02 µM (≈ 0.0463 µg/mL); MIC (Acinetobacter baumannii [16]): 3.4 µM (≈ 7.86 µg/mL); MIC (Staphylococcus aureus [17]): 54 µM (≈ 125 µg/mL); MIC (Brucella suis): > 216 µM; Activity [18]: Active |
| CC(=O)NCC(=O)N[C@@H](Cc1ccccc1)C(=O)N1CCc2ccccc2[C@H]1C(=O)N1C2CCCCC2C[C@H]1C(=O)NCC(=O)N[C@@H](CCCCN)C(=O)N1CCc2ccccc2[C@H]1C(=O)N1C2CCCCC2C[C@H]1C(=O)NCC(=O)N[C@@H](Cc1ccccc1)C(=O)N1CCc2ccccc2[C@H]1C(=O)N1C2CCCCC2C[C@H]1C(=O)NCC(=O)N[C@@H](CCCCN)C(=O)N1CCc2ccccc2[C@H]1C(=O)N[C@@H](CCCCN)C(=O)N[C@@H](CCCCN)C(=O)N[C@@H](CCCCN)C(=O)N[C@@H](CCCCN)C(N)=O (stereo partly drawn) (Ac-GF[Tiq1c(1S)][Oic(3aξ,7aξ)]GK[Tiq1c(1S)][Oic(3aξ,7aξ)]GF[Tiq1c(1S)][Oic(3aξ,7aξ)]GK[Tiq1c(1S)]KKKK-NH2) | 3 (≈ 7.32 µg/mL) | Not Active | – | 0.097 | – | 10 (≈ 24.4 µg/mL) | 10 (≈ 24.4 µg/mL) | Active | 0.089 | – | – | – | 205 (≈ 500 µg/mL) | 3.2 (≈ 7.81 µg/mL) | 205 (≈ 500 µg/mL) | 205 (≈ 500 µg/mL) | 205 (≈ 500 µg/mL) | Active | 205 (≈ 500 µg/mL) | Active | Activity [19]: Active; Activity [20]: Active; Activity [21]: Active; Activity [22]: Active; MIC (Bacillus anthracis): 12.8 µM (≈ 31.2 µg/mL); MIC [15]: 100 µM (≈ 244 µg/mL); MIC (Acinetobacter baumannii [16]): 3.2 µM (≈ 7.81 µg/mL); Activity [23]: Active; MIC (Staphylococcus aureus [17]): 205 µM (≈ 500 µg/mL); MIC (Brucella suis): 205 µM (≈ 500 µg/mL); MIC (Bacillus subtilis): 1 µM (≈ 2.44 µg/mL) |
| CC(=O)N[C@@H](CCCCN)C(=O)N[C@@H](CCCCN)C(=O)N[C@@H](CCCCN)C(=O)N[C@@H](CCCCN)C(=O)NCC(=O)N[C@@H](Cc1ccccc1)C(=O)N1CCc2ccccc2[C@H]1C(=O)N1C2CCCCC2C[C@H]1C(=O)NCC(=O)N[C@@H](CCCCN)C(=O)N1CCc2ccccc2[C@H]1C(=O)N1C2CCCCC2C[C@H]1C(=O)NCC(=O)N[C@@H](Cc1ccccc1)C(=O)N1CCc2ccccc2[C@H]1C(=O)N1C2CCCCC2C[C@H]1C(=O)NCC(=O)N[C@@H](CCCCN)C(=O)N1CCc2ccccc2[C@H]1C(N)=O (stereo partly drawn) (Ac-KKKKGF[Tiq1c(1S)][Oic(3aξ,7aξ)]GK[Tiq1c(1S)][Oic(3aξ,7aξ)]GF[Tiq1c(1S)][Oic(3aξ,7aξ)]GK[Tiq1c(1S)]-NH2) | 30 (≈ 73.2 µg/mL) | Active | Active | 0.57 | Active | 100 (≈ 244 µg/mL) | 3 (≈ 7.32 µg/mL) | Active | 0.0085 | Active | Active | Active | 13.1 (≈ 32 µg/mL) | 12.8 (≈ 31.2 µg/mL) | 51 (≈ 124 µg/mL) | 204 (≈ 498 µg/mL) | 51 (≈ 124 µg/mL) | Active | 204 (≈ 498 µg/mL) | Active | MIC (Bacillus anthracis): 0.4 µM (≈ 0.976 µg/mL); MIC [15]: 51 µM (≈ 124 µg/mL); MIC (Acinetobacter baumannii [16]): 12.8 µM (≈ 31.2 µg/mL); MIC (Staphylococcus aureus [17]): 102 µM (≈ 249 µg/mL); MIC (Brucella suis): 25.6 µM (≈ 62.5 µg/mL); Activity [18]: Active |

From ChEMBL document CHEMBL2177070, “The effect of the placement and total charge of the basic amino acid clusters on antibacterial organism selectivity and potency” (Bioorg Med Chem, 2011)
